Source: PubChem BioAssay (NCI)
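Five concentrations, 48 hours, 96-well plates. At the TGI there is no net growth.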

Key:
Assay in all cases: NCI tumour cell line growth inhibition, 48 h
NCI-H226 lung = system: NCI-H226 lung
U251 CNS = system: U251 CNS
SW-620 colon = system: SW-620 colon
A498 renal = system: A498 renal
HS 578T breast = system: HS 578T breast
T-47D breast = system: T-47D breast
SF-268 CNS = system: SF-268 CNS
NCI-H522 lung = system: NCI-H522 lung
HCC-2998 colon = system: HCC-2998 colon
MDA-MB-231 breast = system: MDA-MB-231 breast
RPMI-8226 leukemia = system: RPMI-8226 leukemia
HOP-92 NSCLC = system: HOP-92 NSCLC
HCT-15 colon = system: HCT-15 colon
HOP-62 NSCLC = system: HOP-62 NSCLC
MCF7 breast = system: MCF7 breast
OVCAR-3 ovarian = system: OVCAR-3 ovarian
BT-549 breast = system: BT-549 breast
EKVX NSCLC = system: EKVX NSCLC
SN12C renal = system: SN12C renal
SK-MEL-2 melanoma = system: SK-MEL-2 melanoma
SF-539 CNS = system: SF-539 CNS
UO-31 renal = system: UO-31 renal
CCRF-CEM leukemia = system: CCRF-CEM leukemia
ACHN renal = system: ACHN renal
COLO 205 colon = system: COLO 205 colon
CAKI-1 renal = system: CAKI-1 renal
SK-OV-3 ovarian = system: SK-OV-3 ovarian
786-0 renal = system: 786-0 renal
PC-3 prostate = system: PC-3 prostate
MALME-3M melanoma = system: MALME-3M melanoma
UACC-62 melanoma = system: UACC-62 melanoma
NCI/ADR-RES ovarian = system: NCI/ADR-RES ovarian
RXF 393 renal = system: RXF 393 renal
IGROV1 ovarian = system: IGROV1 ovarian
SK-MEL-5 melanoma = system: SK-MEL-5 melanoma
SK-MEL-28 melanoma = system: SK-MEL-28 melanoma
SR leukemia = system: SR leukemia
OVCAR-4 ovarian = system: OVCAR-4 ovarian
A549 NSCLC = system: A549 NSCLC
SF-295 CNS = system: SF-295 CNS
M14 melanoma = system: M14 melanoma
NCI-H460 lung = system: NCI-H460 lung
OVCAR-5 ovarian = system: OVCAR-5 ovarian
HT29 colon = system: HT29 colon
UACC-257 melanoma = system: UACC-257 melanoma
HCT-116 colon = system: HCT-116 colon
LOX IMVI melanoma = system: LOX IMVI melanoma
OVCAR-8 ovarian = system: OVCAR-8 ovarian
DU-145 prostate = system: DU-145 prostate
NCI-H23 lung = system: NCI-H23 lung
MDA-N = system: MDA-N
SNB-75 CNS = system: SNB-75 CNS
TK-10 renal = system: TK-10 renal
MDA-MB-435 = system: MDA-MB-435
KM12 colon = system: KM12 colon
K-562 leukemia = system: K-562 leukemia
SNB-19 CNS = system: SNB-19 CNS

Question: With `COc1ccc(OC)c(C(=O)/C=C/c2cc(O)c(O)cc2F)c1` as the compound, how does the TGI (NCI-H226 lung) read?
Answer: The TGI was 15.4 µM.

Question: And the TGI (U251 CNS)?
Answer: Its TGI is 12.3 µM.

Question: What about the TGI (SW-620 colon) of the same compound?
Answer: The TGI was greater than 66.5 µM.

Question: And the TGI (A498 renal)?
Answer: Its TGI is 12.5 µM.

Question: What about the TGI (HS 578T breast) of the same compound?
Answer: The TGI was greater than 100 µM.

Question: And the TGI (T-47D breast)?
Answer: Its TGI is greater than 100 µM.

Question: What about the TGI (SF-268 CNS) of the same compound?
Answer: The TGI was greater than 44.9 µM.

Question: What about the TGI (NCI-H522 lung) of the same compound?
Answer: Its TGI is 0.948 µM.

Question: What about the TGI (HCC-2998 colon) of the same compound?
Answer: The TGI was 1.98 µM.

Question: And the TGI (MDA-MB-231 breast)?
Answer: Its TGI is 11.4 µM.

Question: And the TGI (RPMI-8226 leukemia)?
Answer: Its TGI is 7.83 µM.

Question: And the TGI (HOP-92 NSCLC)?
Answer: The TGI was greater than 67 µM.

Question: What about the TGI (HCT-15 colon) of the same compound?
Answer: The TGI was 13.5 µM.

Question: What about the TGI (HOP-62 NSCLC) of the same compound?
Answer: Its TGI is 29.2 µM.

Question: What about the TGI (MCF7 breast) of the same compound?
Answer: The TGI was 14.3 µM.

Question: And the TGI (OVCAR-3 ovarian)?
Answer: The TGI was 1.59 µM.

Question: What about the TGI (BT-549 breast) of the same compound?
Answer: Its TGI is 19.6 µM.

Question: What about the TGI (EKVX NSCLC) of the same compound?
Answer: Its TGI is greater than 77.4 µM.

Question: What about the TGI (SN12C renal) of the same compound?
Answer: The TGI was 5.8 µM.

Question: What about the TGI (SK-MEL-2 melanoma) of the same compound?
Answer: Its TGI is 9.51 µM.

Question: And the TGI (SF-539 CNS)?
Answer: Its TGI is 0.626 µM.

Question: What about the TGI (UO-31 renal) of the same compound?
Answer: The TGI was 28.7 µM.

Question: And the TGI (CCRF-CEM leukemia)?
Answer: Its TGI is 15.7 µM.

Question: And the TGI (ACHN renal)?
Answer: The TGI was greater than 50.3 µM.

Question: And the TGI (COLO 205 colon)?
Answer: The TGI was 31.7 µM.

Question: What about the TGI (CAKI-1 renal) of the same compound?
Answer: Its TGI is 27.6 µM.

Question: And the TGI (SK-OV-3 ovarian)?
Answer: Its TGI is greater than 67.5 µM.

Question: And the TGI (786-0 renal)?
Answer: Its TGI is 17.6 µM.

Question: And the TGI (PC-3 prostate)?
Answer: The TGI was 17.1 µM.

Question: And the TGI (MALME-3M melanoma)?
Answer: Its TGI is 27.4 µM.

Question: What about the TGI (UACC-62 melanoma) of the same compound?
Answer: The TGI was 11.7 µM.

Question: What about the TGI (NCI/ADR-RES ovarian) of the same compound?
Answer: Its TGI is greater than 89.5 µM.

Question: And the TGI (RXF 393 renal)?
Answer: Its TGI is 23.5 µM.

Question: And the TGI (IGROV1 ovarian)?
Answer: Its TGI is 34.2 µM.

Question: And the TGI (SK-MEL-5 melanoma)?
Answer: The TGI was 12.4 µM.

Question: What about the TGI (SK-MEL-28 melanoma) of the same compound?
Answer: Its TGI is 35.8 µM.

Question: And the TGI (SR leukemia)?
Answer: Its TGI is 4.62 µM.

Question: And the TGI (OVCAR-4 ovarian)?
Answer: Its TGI is greater than 90 µM.

Question: What about the TGI (A549 NSCLC) of the same compound?
Answer: Its TGI is greater than 82.7 µM.

Question: And the TGI (SF-295 CNS)?
Answer: Its TGI is 9.25 µM.

Question: What about the TGI (M14 melanoma) of the same compound?
Answer: Its TGI is 19.7 µM.

Question: What about the TGI (NCI-H460 lung) of the same compound?
Answer: Its TGI is 9.27 µM.

Question: What about the TGI (OVCAR-5 ovarian) of the same compound?
Answer: The TGI was 38.9 µM.

Question: What about the TGI (HT29 colon) of the same compound?
Answer: Its TGI is 29.3 µM.

Question: And the TGI (UACC-257 melanoma)?
Answer: Its TGI is 18.3 µM.

Question: What about the TGI (HCT-116 colon) of the same compound?
Answer: The TGI was 11.5 µM.

Question: And the TGI (LOX IMVI melanoma)?
Answer: Its TGI is 16.1 µM.

Question: And the TGI (OVCAR-8 ovarian)?
Answer: The TGI was 24.3 µM.

Question: And the TGI (DU-145 prostate)?
Answer: The TGI was 15.1 µM.

Question: What about the TGI (NCI-H23 lung) of the same compound?
Answer: Its TGI is 10.4 µM.

Question: What about the TGI (MDA-N) of the same compound?
Answer: The TGI was 0.534 µM.

Question: And the TGI (SNB-75 CNS)?
Answer: Its TGI is 28.2 µM.

Question: And the TGI (TK-10 renal)?
Answer: Its TGI is 21.6 µM.

Question: And the TGI (MDA-MB-435)?
Answer: The TGI was 0.99 µM.

Question: What about the TGI (KM12 colon) of the same compound?
Answer: Its TGI is 13.8 µM.

Question: And the TGI (K-562 leukemia)?
Answer: The TGI was greater than 27.8 µM.

Question: What about the TGI (SNB-19 CNS) of the same compound?
Answer: The TGI was greater than 35 µM.
